The values that follow come from patent US5696164A, “Antifungal treatment of nails” (Johnson & Johnson Consumer Products, Inc., priority 1994, dated 1997).

Values after ≈ are worked out from the molar mass of the structure shown. Counter-ions that a name gives are not always drawn.

Data set [1] in a line: Nail swelling-pH profile (urea/propylene carbonate/propylene glycol/N-acetyl-l-cysteine/water). The arrangement: species or system human. Particulars: FIG. 8; pH 3.2-7.0, 32 °C. The method, then: (§1) The experimental procedure was the following: Clean human nail clippings were equilibrated to a constant weight by placing them in a desiccator over saturated CaCl2.6H2 O solution (29% relative humidity at room temperature) for at least 48 hours before use. Approximately 30 mg of human nail clippings were weighed into a glass vial. The exact initial weight was recorded. Four grams of the test formulation (pre-warmed to 32° C.) was added into the vial and maintained at 32° C. under stirring in a Heating/Stirring Module (Reacti-Therm III, Pierce). The changes in nail weights were monitored at predetermined intervals over 48 hours. At the end of the swelling experiment, the nail sample was rinsed with a mixture of N,N-dimethylformamide and methanol (1:1) to remove surface-bound drug. The nail sample was then digested, and the drug concentration in nail was determined by high pressure liquid chromatography method as described by Badcock and Davies, Assay of itraconazole in nail clippings by reversed phase, high performance liquid chromatography, Ann. Clin. Biochem, 27 (1990) 506-508.
It should be noted that, unlike the itraconazole formulations discussed above, which were tested at pH 3, the pH value of the miconazole nitrate formulation was set at pH 9. […] This was confirmed by the swelling-pH profile shown in FIG. 8, using the following formulation: […]

The conditions of data set [2]: calcium thioglycolate added directly into ointment; cited from earlier work.
Data set [3] has as its system dermatophites. Particulars: "as low as"; cited from earlier work.
In data set [4] the test system is yeasts. Particulars: "as low as"; cited from earlier work.
For data set [5] the following is noted: as the formulation pH increases; cited from earlier work.
For data set [6] the following is noted: after nail avulsion; cited from earlier work.
Data set [7] can be described thus: Nail swelling of human nail clippings in itraconazole formulations. Particulars: FIG. 3a, 32 °C, 48 h.
Protocol: The experimental procedure was the following: Clean human nail clippings were equilibrated to a constant weight by placing them in a desiccator over saturated CaCl2.6H2 O solution (29% relative humidity at room temperature) for at least 48 hours before use. Approximately 30 mg of human nail clippings were weighed into a glass vial. The exact initial weight was recorded. Four grams of the test formulation (pre-warmed to 32° C.) was added into the vial and maintained at 32° C. under stirring in a Heating/Stirring Module (Reacti-Therm III, Pierce). The changes in nail weights were monitored at predetermined intervals over 48 hours. […]
The nail swelling was expressed by the percentage of the initial nail weight (i.e., 100% of the initial nail weight means no swelling, and 200% means a nail swelling doubling the original weight, etc). An enhancement factor is used to show the increase in nail swelling due to the presence of nail penetration enhancer in comparison to the control, which were calculated according to the formula: enhancement factor=(% weight gain of the test nail sample)/(% weight gain of control nail sample, i.e., no enhancer & urea in the formulation). […] The drug concentration in nail was calculated by dividing the amount of the drug in nail (mg) by the weight of the initial nail clipping (i.e., dry nail weight in gram). […]
Data set [8] in a line: Nail swelling in miconazole nitrate cream formulation. The arrangement: species or system human. The conditions noted are these: FIG. 7; 1% miconazole nitrate, 20% urea, 10% N-acetyl-l-cysteine cream, pH 9.0. The method, then: as §1
(§2) A nail swelling and drug partitioning experiment was also conducted for miconazole nitrate using procedures analogous to those described above. […]

Data set [9] in a line: Miconazole nitrate partitioning into nail. The format is in vitro ADME, human. Particulars: FIG. 7; 1% miconazole nitrate, 20% urea, 10% N-acetyl-l-cysteine cream, pH 9.0. The method, then:
as §1, §2

The nature of data set [10]: Effect of urea on nail swelling/hydration in aqueous urea solutions. The conditions noted are these: pH 4.5. The arrangement: species or system human. The method, then: as §1
The effect of urea on nail swelling was investigated, using aqueous urea solutions of various concentrations at pH 4.5. […] For this reason, it is believed that the use of urea alone will not cause significant enhancement of drug permeation through the nail.

For data set [11] the following is noted: prior to topical treatment of onychomycosis; cited from earlier work.
The conditions of data set [12]: rats; skin pretreated with aqueous calcium thioglycolate solution; cited from earlier work.

For the compound `CC(=O)N[C@@H](CS)C(=O)O` [N-acetyl-l-cysteine, N-Acetyl-l-cysteine], the “working pH range” value in data set [1] is on record as “wide working pH range”.

As for `COc1ccc2c(c1)c(CC(=O)O)c(C)n2C(=O)c1ccc(Cl)cc1` [calcium salt of indomethacin, indomethacin], the drug absorption result in data set [2] is “dramatically decreased the absorption”.

Regarding `CCC(C)n1ncn(-c2ccc(N3CCN(c4ccc(OCC5COC(Cn6cncn6)(c6ccc(Cl)cc6Cl)O5)cc4)CC3)cc2)c1=O` (centres unmarked) [itraconazole], the “minimal inhibitory concentration (MIC)” value in [3] and in [4] was 0.1 µg/mL (≈ 0.142 µM) throughout. In addition, in data set [5], the “solubility versus formulation pH” value was “decreases”.

For the compound `CC(=O)N1CCN(c2ccc(OCC3COC(Cn4ccnc4)(c4ccc(Cl)cc4Cl)O3)cc2)CC1` (centres unmarked) [ketoconazole], the “efficacy in topically treating onychomycosis” value in data set [6] is “effective”.

Turning to `N[C@@H](CS)C(=O)O` [l-cysteine], the “rank of nail swelling enhancement” value in data set [7] is listed as “highest nail swelling enhancement”.

Consider `Clc1ccc(COC(Cn2ccnc2)c2ccc(Cl)cc2Cl)c(Cl)c1` (centres unmarked) [miconazole nitrate], for which, in data set [8], the nail swelling result is given as “significant nail swelling”. The “miconazole partitioning into the nail” value in [9] is “substantial miconazole partitioning into the nail”.

Turning to `Clc1ccc(COC(Cn2ccnc2)c2ccc(Cl)cc2Cl)c(Cl)c1` (centres unmarked) [miconazole], the “efficacy in topically treating onychomycosis” value in [6] was “effective”.

Consider `NC(N)=O` [urea], for which the results for the nail hydration in data set [10] (20% aqueous urea) and in data set [10] (40% aqueous urea) were 30% and 50%, respectively. Also, the “results of nonsurgical avulsion of nail dystrophies” value in data set [11] is recorded as “satisfactory results”.

On to insulin, for which, in data set [12], the transdermal drug permeation result is reported as “enhanced transdermal drug permeation”.
